{
  "source": "patent US6387907B1",
  "about": "“Use of serotonin agonists to alleviate disordered breathing episodes in a mammal” (The Trustees of the University of Pennsylvania, priority 1997, dated 2002)",
  "assay_type_in_all_cases": "in vivo, English bulldog",
  "key": {"[1]": {"tested_on": "English bulldogs", "assay": "Cine CT imaging of the upper airway before and after ritanserin", "conditions": "0.5 mg/kg i.v.", "procedure": "The effect of administering a serotonin antagonist on upper airway dimensions during a respiratory cycle was determined by performing cinematic computed tomography (cine CT) on dogs before and after administration of the antagonists. Cine CT allows both high spatial and temporal resolution (Shepard et al., 1990, In: Proceedings of the First International Symposium on Sleep and Respiration, New York, 273-282; Schwab et al., 1993, Am. Rev. Respir. Dis. 148:1385-1400), and has been used to define dynamic changes in the upper airways of humans in relation to the phases of the respiratory cycle (Schwab et al., 1993, Am. Rev. Respir. Dis. 148:1385-1400; Galvin et al., 1989, Radiology 171:775-778; Schwab et al., 1993, J. Appl. Physiol. 74:1504-1514). An Imatron C-100 ultrafast scanner (Imatron Inc., South San Francisco, Calif.) was used for these studies.\nDogs were studied during wakefulness. All dogs were trained prior to the study to lie quietly on a table similar to the CT scanner table for periods as long as one hour. However, to maintain constant head and body position throughout the study, each dog wore a nylon vest secured to the table at the shoulder and hips. Lateral radiographs of the neck were performed initially so that the head and neck were positioned with a 110 to 130 degree angle between the hard palate and the upper trachea.\nOnce the angle was confirmed, the head was gently secured in place to the scanner table with elastic dressing tape. With the dog comfortably secured in place, a scout filming of the airways was performed with 40 consecutive 3-millimeter-thick coronal slices imaged from the region of the nasopharynx through the larynx. For each dog, these images were used to select four standard areas of study for all dogs. […] For each dog, the areas which were imaged included the posterior nasopharynx (at the level of pterygoid fossa in the dog), the retropalatal high area (at the midhyoid arch level), the retropalatal low area (at the level of the anterior hyoid bone), and the larynx.\nPrior to imaging, each dog was connected as described above for monitoring geniohyoid, sternohyoid, and diaphragm muscle activity, respiratory inductive plethysmography, and oxyhemoglobin saturation. During quiet breathing, 20 consecutive images at 0.4-second intervals were obtained simultaneously at each of the four described levels. This program allowed for the description of the dynamic changes in airway dimensions over four to seven breaths at all four anatomic levels simultaneously. The image acquisition time for each radiograph was 50 milliseconds, and images were 3 millimeters thick. Imaging studies were rejected and repeated if the respiratory activity was interrupted at any time during imaging by swallowing, sighing (defined for this study as a diaphragm burst 200% greater in amplitude than the previous 10 bursts), licking, or panting, the latter being defined as a respiratory frequency of more than 60 diaphragmatic respiratory bursts per minute. Cine CT scanner impulses marking the timing for all images were transmitted to the polygraph with continuing signals of all objective measures, i.e., GH, SH, and DIA EMG activity, oxyhemoglobin saturation, and chest wall plethysmography. […]\nThis study quantified the effects of the serotonin antagonist, ritanserin, on the cross-sectional area of the upper airway and its dynamic changes during the respiratory cycle. […]"}, "[2]": {"tested_on": "English bulldogs", "assay": "Respiratory timing from DIA moving average signals", "conditions": "0.25 mg/kg, mean±SE, six dogs", "from_the_text": "Respiratory timing variables were obtained from the DIA MA signals, using methods previously described to determine inspiratory time (T1), expiratory time (TE), total time of a respiratory burst (Ttot), and the duty cycle ratio (T1/Ttot) (Hendricks et al., 1987, J. Appl. Physiol. 63:1344-1350; Hendricks et al., 1991, Am Rev. Respir. Dis. 144:1112-1120)."}, "[3]": {"tested_on": "English bulldogs", "assay": "Waking oxyhemoglobin saturation (SaO2) after i.v. serotonin antagonist", "conditions": "mean±SE", "procedure": "All studies were conducted using an unrestrained dog, either housed within a well-ventilated, electronically shielded, clear Plexiglass™ recording chamber or seated atop a table in the recording room. In either case, an investigator remained with the dog throughout the study to observe the dog's head and neck movements and to document the behavioral state of the dog. EMG signals were band-pass filtered at 50 to 2,000 Hertz. DIA EMG signals were passed through an analog EKG blanker (CWE EKG blanker; CWE, Ardmore, Pa.) and then through a third-order Paynter filter (CWE MA) having a 100-millisecond time constant to obtain a moving average of the DIA EMG. Signals of the SH and GH EMG were also passed through Paynter filters with the same time constants (100 ms) to obtain moving averages of these signals. Oxyhemoglobin saturation was measured continuously with a Biox IIA oximeter attached to the dog's pinna. Signals for the GH EMG, GH moving average (MA), SH EMG, SH MA, DIA EMG, DIA MA, and oxyhemoglobin saturations were recorded polygraphically (10 millimeters per second) using a chart recorder with high frequency response, i.e., as much as 10 kHz (Gould ES1000; Gould Instruments, Cleveland, Ohio). Signals were also recorded on analog tape using an eight-channel FM tape recorder (A. R. Vetter, Roseburg, Pa.).\nAfter obtaining baseline recordings of all variables for at least 5 minutes during quiet wakefulness and after obtaining recordings during the 5 minutes following administration of a saline control injection, 0.25 to 0.50 milligrams per kilogram body weight of one of the serotonin antagonists was administered to each dog through a peripheral intravenous line. All variables were continuously recorded. Injections were repeated every 6 minutes either until a total dose of 1 milligram per kilogram body weight had been administered or until the oxygen saturations fell below 85%. These limits were deemed to ensure the dogs' safety, based on an initial study using one dog. This dog, EBD-G was hypoxic at baseline and developed profound reductions in UAW muscle activity with desaturations to 75% after a total dose of 1.0 milligram per kilogram body weight of methysergide. The interval between repeated injections was selected to be 6 minutes to allow for 5 minute sampling periods for each dose. The duration of action of serotonin antagonists is known to be greater than 60 minutes (Bredberg et al., supra; Devaud et al., supra).\nThe effects of ritanserin and methysergide on oxyhemoglobin saturations were analyzed in a similar fashion; i.e., repeated measures of ANOVA for baseline and drug dose conditions. Oxyhemoglobin saturation was measured every 10 scans."}},
  "data": [
    {"smiles": "Cc1nc2sccn2c(=O)c1CCN1CCC(=C(c2ccc(F)cc2)c2ccc(F)cc2)CC1", "note": "[ritanserin]", "values": [
      {"measurement": "GH peak amplitude suppressed by", "setting": "[1]; mean values for the two dogs", "value": "51.1±1.8", "unit": "%"},
      {"measurement": "chest wall respiratory movement amplitude reduced by", "setting": "[1]; two dogs", "value": 59.9, "unit": "%"},
      {"measurement": "upper airway parameters during expiration", "setting": "[1]; two dogs", "value": "no significant changes"},
      {"measurement": "mean SaO2 after administration", "setting": "[1]; two dogs, before 92.8±1.8", "value": "86.2±4.7", "unit": "%"},
      {"measurement": "airway CSA during both stages of inspiration", "setting": "[1]; two dogs, individual ANOVAs p<0.01", "value": "significant reduction"},
      {"measurement": "TI/Ttot (duty cycle ratio)", "setting": "[2]; baseline 0.50±0.02, NS", "value": "0.52 ± 0.02"},
      {"measurement": "TI (inspiratory time)", "setting": "[2]; baseline 1.31±0.20, p 0.02", "value": "1.03 ± 0.17", "unit": "s"},
      {"measurement": "TE (expiratory time)", "setting": "[2]; baseline 1.32±0.20, p 0.04", "value": "1.00 ± 0.23", "unit": "s"},
      {"measurement": "Ttot (total time of a respiratory burst)", "setting": "[2]; baseline 2.60±0.30, p 0.03", "value": "2.02 ± 0.30", "unit": "s"},
      {"measurement": "mean SaO2", "setting": "[3]; 0.25 mg/kg i.v., baseline 92.1±0.6", "value": "88.5±0.8", "unit": "%"},
      {"measurement": "mean SaO2", "setting": "[3]; 0.50 mg/kg i.v., baseline ritanserin 92.1±0.6, methysergide 90.3±2.7", "value": "87.6±1.2", "unit": "%"},
      {"measurement": "mean SaO2", "setting": "[3]; 0.75 mg/kg i.v. cumulative, baseline 92.1±0.6", "value": "88.6±0.5", "unit": "%"}
    ]}
  ]
}
